Activity calls are given as the source filed them. The calls are words filed in the database; no cut-off is given here.
Experiments:
Assay type in all cases: cell membranes
Adenosine receptor A1 = molecular target: T1, Adenosine receptor A1 (Rattus norvegicus, UniProt P25099); experiment: Displacement of [3H]DPCPX from adenosine A1 receptor in rat forebrain membrane
T1 sequence (P25099 whole entry): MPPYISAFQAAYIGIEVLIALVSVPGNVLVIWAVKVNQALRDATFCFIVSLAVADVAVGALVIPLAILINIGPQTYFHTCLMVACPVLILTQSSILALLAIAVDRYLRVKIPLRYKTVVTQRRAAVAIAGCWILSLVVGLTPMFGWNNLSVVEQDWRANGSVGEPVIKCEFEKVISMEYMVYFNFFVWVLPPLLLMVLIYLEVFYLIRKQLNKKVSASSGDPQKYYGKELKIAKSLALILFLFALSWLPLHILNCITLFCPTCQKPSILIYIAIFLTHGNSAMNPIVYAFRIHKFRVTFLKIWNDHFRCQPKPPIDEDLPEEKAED

[1] = molecular target: T2, Adenosine receptor A1 (Rattus norvegicus) (UniProt P25099); experiment: Displacement of [3H]DPCPX from adenosine A1 receptor in rat forebrain membrane in presence of GTP
T2 sequence (whole entry): T1 sequence (P25099 whole entry)

[2] = molecular target: T2, Adenosine receptor A1 (Rattus norvegicus); experiment: Displacement of [3H]DPCPX from adenosine A1 receptor in rat forebrain membrane assessed as fraction of receptor bound radioligand at 100 ug/mL

Row | Structure (SMILES) | Ki (Adenosine receptor A1) | Activity [1] | Activity [2]
1 | COc1cc2oc(-c3ccc(O[C@@H]4O[C@H](CO)[C@@H](O)[C@H](O)[C@H]4O)cc3)cc(=O)c2c(O)c1OC [CIRSIMARIN] | 3.2 µM | Active | 2%
2 | C[C@@H]1O[C@@H](OC[C@H]2O[C@@H](Oc3c(-c4ccc(O)cc4)oc4cc(O)cc(O)c4c3=O)[C@H](O)[C@@H](O)[C@@H]2O)[C@H](O)[C@H](O)[C@H]1O | – | – | 37%
3 | O=c1c(O)c(-c2ccc(O)cc2)oc2cc(O)cc(O)c12 | – | – | 18%
4 | O=c1c(O)c(-c2cc(O)c(O)c(O)c2)oc2cc(O)cc(O)c12 | – | – | 24%
5 | C[C@@H]1O[C@@H](Oc2c(-c3ccc(O)c(O)c3)oc3cc(O)cc(O)c3c2=O)[C@H](O)[C@H](O)[C@H]1O (stereo in doubt; 8) | – | – | 58%
6 | C[C@@H]1O[C@@H](OC[C@H]2O[C@@H](Oc3c(-c4ccc(O)c(O)c4)oc4cc(O)cc(O)c4c3=O)[C@H](O)[C@@H](O)[C@@H]2O)[C@H](O)[C@H](O)[C@H]1O | – | – | 103%
7 | O=c1cc(-c2ccc(O)cc2)oc2cc(O)cc(O)c12 | – | – | 50%
8 | COc1cc(-c2cc(=O)c3c(O)cc(O[C@@H]4O[C@H](CO)[C@@H](O)[C@H](O)[C@H]4O[C@@H]4O[C@@H](C)[C@H](O)[C@@H](O)[C@H]4O)cc3o2)ccc1O | – | – | 94%
9 | COc1cc2oc(-c3ccc(O)cc3)cc(=O)c2c(O)c1OC | – | – | 48%
10 | O=c1cc(-c2ccc(O)cc2)oc2c([C@@H]3O[C@H](CO)[C@@H](O)[C@H](O)[C@H]3O)c(O)cc(O)c12 | – | – | 103%
11 | C[C@@H]1O[C@@H](Oc2c(-c3ccc(O)c(O)c3)oc3cc(O)cc(O)c3c2=O)[C@H](O)[C@H](O)[C@H]1O (stereo in doubt; 6) | – | – | 50%
12 | O=c1c(O[C@@H]2O[C@H](CO)[C@H](O)[C@H](O)[C@H]2O)c(-c2ccc(O)c(O)c2)oc2cc(O)cc(O)c12 | – | – | 86%
